Laboratory results: patent US9403791B1, “Coumarin derivatives for cancer therapy” (Wellesley College, priority 2013, dated 2016)

Experiments:
[1] = tested on: PANC-1 cells; assay: In vitro cytotoxicity assay (WST-8 cell viability), nutrient deprived media; type: cell-based; conditions: for CC50: Homo sapiens, PANC-1 cells, 24-hour incubation, WST-8 cell counting kit, nutrient deprived media (medium not restated at table), read-out: LC50 (the source's name)
Procedure: (§1) PANC-1 cells, ranging from passage numbers 30-36 and 40-45, were seeded in 96-well plates at a density of 2.5×10^4 cells per well and incubated in fresh Dulbecco's modified Eagle's medium (DMEM, Sigma Aldrich) at 37° C. and 5% CO2 for 24 hours. Cells were then washed with PBS (Sigma Aldrich) and then subjected to the addition of either DMEM or nutrient deprived media (absence of glucose, amino acid and serum). Serially diluted coumarin compounds were added to the cells followed by a 24-hour incubation at 37° C. and 5% CO2. Cell morphology was then observed under an inverted microscope. Cells were then washed with PBS, and fresh DMEM and 10% WST-8 cell counting kit solution (Dojindo Molecular Technologies) were added to each well. The cells were incubated for 3-hours at 37° C. and 5% CO2. Absorbance values were measured using a plate reader at 450 nm, and cell viability was calculated using the following equation % Cell viability=[{Abstest sample−Absblank}/{Abscontrol−Absblank}]*100. The cell viability of compounds 2, 3 and 4 is seen in FIG. 1a.
(§2) The assay detailed above was performed additional times and results were obtained. Briefly, PANC-1 cells, ranging from passage numbers 30-36 and 40-45, were seeded in 96-well plates at a density of 2.5×10^4 cells per well density and incubated in fresh Dulbecco's modified Eagle's medium (DMEM, Sigma Aldrich) at 37° C., 5% CO2 for 24 hours. Cells were then washed with PBS (Sigma Aldrich) and then subjected to the addition of either nutrient rich media (NRM) or nutrient deprived media (NDM). Serially diluted coumarin compounds (5.5% DMSO in NDM) were added to the cells followed by a 24-hour incubation at 37° C., 5% CO2. Cell morphology was then observed under an inverted microscope. Cells were then washed with PBS, and fresh DMEM and 10% WST-8 cell counting kit (Dojindo Molecular Technologies) were added for a 3-hour incubation at 37° C., 5% CO2. Absorbance values were measured with a plate reader at 450 nm, and cell viability was calculated using the equation % Cell viability=[{Abstest sample−Absblank}/{Abscontrol−Absblank}]*100. The cell viability of compounds 2, 3 and 4 (e.g., viability of cells following treatment with compounds 2, 3, or 4 was assessed) is shown in FIG. 1b, and is consistent with the results shown in FIG. 1a. LC50 values were determined and are as follows.

[2] = tested on: PANC-1 cells; assay: In vitro cytotoxicity assay (WST-8 cell viability), nutrient rich media; type: cell-based
Procedure: as §1
as §2, with “Serially diluted coumarin compounds (5.5% DMSO in NDM) were added to the cells followed by a 24-hour incubation at 37° C., 5% CO2. Cell morphology was then observed under an inverted microscope. Cells were then washed with PBS, and fresh DMEM and 10% WST-8 cell counting kit (Dojindo Molecular Technologies) were added for a 3-hour incubation at 37° C., 5% CO2.” left out

[3] = tested on: PANC-1 cells; assay: Morphological change observation under inverted microscope, nutrient-deprived conditions; type: cell-based; conditions: 6.25 μM, 12.5 μM, and 25 μM, 24 hour incubation
Procedure: as §1, with “Cells were then washed with PBS, and fresh DMEM and 10% WST-8 cell counting kit solution (Dojindo Molecular Technologies) were added to each well. The cells were incubated for 3-hours at 37° C. and 5% CO2.” left out, “The cell viability of compounds 2, 3 and 4 is seen in FIG. 1a.” left out
The assay detailed above was performed additional times and results were obtained. […] Absorbance values were measured with a plate reader at 450 nm, and cell viability was calculated using the equation % Cell viability=[{Abstest sample−Absblank}/{Abscontrol−Absblank}]*100. The cell viability of compounds 2, 3 and 4 (e.g., viability of cells following treatment with compounds 2, 3, or 4 was assessed) is shown in FIG. 1b, and is consistent with the results shown in FIG. 1a. LC50 values were determined and are as follows.

[4] = tested on: pancreatic cancer cell line PANC-1; conditions: within 24 hours; cited from earlier work

Compound	CC50 [1]	cytotoxicity towards PANC-1 cells under nutrient starvation conditions [1]	cytotoxic activity when cells cultured under nutrient-rich conditions [2]	morphological changes to PANC-1 cells [3]	cytotoxicity against PANC-1 under nutrient starvation conditions [4]
CC(C)=CCC/C(C)=C/CC/C(C)=C/COc1ccc2oc(=O)ccc2c1 [Compound 4, 6-(((2E,6E)-3,7,11-trimethyldodeca-2,6,10-trien-1-yl)oxy)-2H-chromen-2-one]	4 µM	preferential cytotoxicity	no significant cytotoxic activity	induced apoptosis-like morphological changes	–
CC(C)=CCC/C(C)=C/COc1ccc2oc(=O)ccc2c1 [Compound 3, (E)-6-((3,7-dimethylocta-2,6-dien-1-yl)oxy)-2H-chromen-2-one]	12 µM	preferential cytotoxicity	no significant cytotoxic activity	–	–
CC(C)(OC(=O)C=Cc1ccc(O)cc1)C1Cc2c(ccc3ccc(=O)oc23)O1 (centres unmarked) [Angelmarin, 11-O-(p-hydroxy-cinnamoyl) columbianetin]	–	–	–	–	exhibit cytotoxicity
CC(C)=CCOc1ccc2oc(=O)ccc2c1 [Compound 2, 6-((3-methylbut-2-en-1-yl)oxy)-2H-chromen-2-one]	> 100 µM	preferential cytotoxicity	no significant cytotoxic activity	–	–
